Results: patent US10738028B2, “Spiro three-membered ring, spiro five-membered ring peptide deformylase inhibitor and use thereof in antibacteria and anti-tumor” (priority 2016, dated 2020)
Converted amounts (≈) assume the structure as drawn.

Legend:
Format in all cases: cell-based
[1] = tested on: HCT-116 colorectal cancer cell line; experiment: CCK-8 proliferation inhibition; settings: Homo sapiens, HCT-116, 72 h, concentration of 30 μM; 72 hours; CCK-8; read-out: HCT116 inhibition rate/%
Procedure, shortened: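 2000 cells/well, McCoy's 5A + 10% newborn bovine serum; overnight attach, 37° C./5% CO2. Cpd from DMSO stock diluted in medium, 72 h. Readout: CCK-8 (1:10). Ctrl 1‰ DMSO.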

[2] = tested on: methicillin-resistant Staphylococcus aureus (MRSA); experiment: MIC, two-fold agar dilution (CLSI), clinical isolates
Source text: (§1) 1. The invention adopts the two-fold agar dilution method recommended by the operating procedure of antimicrobial susceptibility testing set by American Clinical and Laboratory Standards Institute (CLSI) to determine the Minimum Inhibitory Concentration (MIC) of the test samples against the tested strains.

[3] = tested on: Enterococcus faecalis (EFA); experiment: as above
Source text: as §1

[4] = tested on: methicillin-sensitive Staphylococcus aureus (MSSA); experiment: as above
Source text: as §1

[5] = tested on: Escherichia coli (including ESBLs, non-ESBLs); experiment: as above
Source text: as §1

[6] = tested on: methicillin-resistant Staphylococcus epidermidis (MRSE); experiment: as above
Source text: as §1

[7] = tested on: Moraxella catarrhalis (BCA); experiment: as above; settings: for Anti-bacterial activity (MIC), strain BCA 14-10: clinical isolate BCA 14-10
Source text: as §1

[8] = tested on: Streptococcus pneoumoniae (SPN); experiment: as above
Source text: as §1

[9] = tested on: methicillin-sensitive Staphylococcus epidermidis (MSSE); experiment: as above
Source text: as §1

[10] = tested on: Enterococcus faecium (EFM); experiment: as above
Source text: as §1

SMILES: O=CN(O)C[C@@H](CC1CCCC1)C(=O)N1CC2(CC2)C[C@H]1C(=O)Nc1cc[nH]n1 [Example 31, (S)-5-((R)-3-cyclopentyl-2-((N-hydroxyformamido)methyl)propionyl)-N-(1H-pyrazol-3-yl)-5-azaspiro[2.4]heptane-6-carboxamide]
- inhibition at 30 µM [1]: 19%
- MIC (anti-bacterial activity) ([2]; strain MRSA 15-1): 2 µg/mL (≈ 4.96 µM)
- MIC (anti-bacterial activity) ([2]; strain MRSA 15-2): 2 µg/mL (≈ 4.96 µM)
- MIC (anti-bacterial activity) ([2]; strain MRSA 15-3): 2 µg/mL (≈ 4.96 µM)
- MIC (anti-bacterial activity) ([2]; strain MRSA 15-4): 2 µg/mL (≈ 4.96 µM)
- MIC (anti-bacterial activity) ([3]; strain EFA 15-1): 32 µg/mL (≈ 79.3 µM)
- MIC (anti-bacterial activity) ([3]; strain EFA 15-2): 32 µg/mL (≈ 79.3 µM)
- MIC (anti-bacterial activity) ([3]; strain EFA 15-3): 32 µg/mL (≈ 79.3 µM)
- MIC (anti-bacterial activity) ([3]; strain EFA 15-4): 32 µg/mL (≈ 79.3 µM)
- MIC (anti-bacterial activity) ([3]; strain EFA 15-5): 32 µg/mL (≈ 79.3 µM)
- MIC (anti-bacterial activity) ([3]; strain EFA 15-6): 32 µg/mL (≈ 79.3 µM)
- MIC (anti-bacterial activity) ([3]; strain EFA 15-9): 32 µg/mL (≈ 79.3 µM)
- MIC (anti-bacterial activity) ([4]; strain MSSA 15-3): 2 µg/mL (≈ 4.96 µM)
- MIC (anti-bacterial activity) ([4]; strain MSSA 15-4): 2 µg/mL (≈ 4.96 µM)
- MIC (anti-bacterial activity) ([4]; strain MSSA 15-5): 2 µg/mL (≈ 4.96 µM)
- MIC (anti-bacterial activity) ([4]; strain MSSA 15-6): 2 µg/mL (≈ 4.96 µM)
- MIC (anti-bacterial activity) ([5]; strain ECO+ 15-1): 32 µg/mL (≈ 79.3 µM)
- MIC (anti-bacterial activity) ([5]; strain ECO+ 15-2): > 32 µg/mL
- MIC (anti-bacterial activity) ([5]; strain ECO+ 15-3): > 32 µg/mL
- MIC (anti-bacterial activity) ([5]; strain ECO+ 15-4): > 32 µg/mL
- MIC (anti-bacterial activity) ([5]; strain ECO− 15-1): > 32 µg/mL
- MIC (anti-bacterial activity) ([5]; strain ECO− 15-2): > 32 µg/mL
- MIC (anti-bacterial activity) ([5]; strain ECO− 15-3): > 32 µg/mL
- MIC (anti-bacterial activity) ([5]; strain ECO− 15-4): > 32 µg/mL
- MIC (anti-bacterial activity) ([6]; strain MRSE 15-1): 0.5 µg/mL (≈ 1.24 µM)
- MIC (anti-bacterial activity) ([6]; strain MRSE 15-2): 2 µg/mL (≈ 4.96 µM)
- MIC (anti-bacterial activity) ([6]; strain MRSE 15-3): 2 µg/mL (≈ 4.96 µM)
- MIC (anti-bacterial activity) ([6]; strain MRSE 15-7): 2 µg/mL (≈ 4.96 µM)
- Anti-bacterial activity (MIC), strain BCA 14-10 [7]: 2 µg/mL
- MIC (anti-bacterial activity) ([7]; strain BCA 14-1): 4 µg/mL (≈ 9.91 µM)
- MIC (anti-bacterial activity) ([7]; strain BCA 14-4): 16 µg/mL (≈ 39.7 µM)
- MIC (anti-bacterial activity) ([7]; strain BCA 14-5): 2 µg/mL (≈ 4.96 µM)
- MIC (anti-bacterial activity) ([7]; strain BCA 14-6): 8 µg/mL (≈ 19.8 µM)
- MIC (anti-bacterial activity) ([7]; strain BCA 14-7): 2 µg/mL (≈ 4.96 µM)
- MIC (anti-bacterial activity) ([7]; strain BCA 14-8): 4 µg/mL (≈ 9.91 µM)
- MIC (anti-bacterial activity) ([8]; strain SPN 16-2): 1 µg/mL (≈ 2.48 µM)
- MIC (anti-bacterial activity) ([8]; strain SPN 16-4): 16 µg/mL (≈ 39.7 µM)
- MIC (anti-bacterial activity) ([9]; strain MSSE 15-3): 2 µg/mL (≈ 4.96 µM)
- MIC (anti-bacterial activity) ([9]; strain MSSE 15-4): 2 µg/mL (≈ 4.96 µM)
- MIC (anti-bacterial activity) ([9]; strain MSSE 15-5): 2 µg/mL (≈ 4.96 µM)
- MIC (anti-bacterial activity) ([9]; strain MSSE 15-6): 2 µg/mL (≈ 4.96 µM)
- MIC (anti-bacterial activity) ([10]; strain EFM 15-1): 4 µg/mL (≈ 9.91 µM)
- MIC (anti-bacterial activity) ([10]; strain EFM 15-2): 4 µg/mL (≈ 9.91 µM)
- MIC (anti-bacterial activity) ([10]; strain EFM 15-3): 2 µg/mL (≈ 4.96 µM)
- MIC (anti-bacterial activity) ([10]; strain EFM 15-4): 4 µg/mL (≈ 9.91 µM)
- MIC (anti-bacterial activity) ([10]; strain EFM 15-5): 2 µg/mL (≈ 4.96 µM)
- MIC (anti-bacterial activity) ([10]; strain EFM 15-6): 4 µg/mL (≈ 9.91 µM)

SMILES: O=CN(O)C[C@@H](CC1CCCC1)C(=O)N1CC2(CC2)C[C@H]1C(=O)N1CCS(=O)(=O)CC1 [Example 35, N—((R)-2-(cyclopentylmethyl)-3-((S)-6-(1,1-dioxythiomorpholine-4-carbonyl)-5-azaspiro[2.4]heptane-5-yl)-3-propylcarbonyl)-N-hydroxyformamide]
- inhibition at 30 µM [1]: -1%
- MIC (anti-bacterial activity) ([2]; strain MRSA 15-1): 16 µg/mL (≈ 35.1 µM)
- MIC (anti-bacterial activity) ([2]; strain MRSA 15-2): 32 µg/mL (≈ 70.2 µM)
- MIC (anti-bacterial activity) ([2]; strain MRSA 15-3): 16 µg/mL (≈ 35.1 µM)
- MIC (anti-bacterial activity) ([2]; strain MRSA 15-4): 32 µg/mL (≈ 70.2 µM)
- MIC (anti-bacterial activity) ([3]; strain EFA 15-1): 32 µg/mL (≈ 70.2 µM)
- MIC (anti-bacterial activity) ([3]; strain EFA 15-2): 32 µg/mL (≈ 70.2 µM)
- MIC (anti-bacterial activity) ([3]; strain EFA 15-3): 32 µg/mL (≈ 70.2 µM)
- MIC (anti-bacterial activity) ([3]; strain EFA 15-4): 32 µg/mL (≈ 70.2 µM)
- MIC (anti-bacterial activity) ([3]; strain EFA 15-5): 32 µg/mL (≈ 70.2 µM)
- MIC (anti-bacterial activity) ([3]; strain EFA 15-6): 32 µg/mL (≈ 70.2 µM)
- MIC (anti-bacterial activity) ([3]; strain EFA 15-9): 32 µg/mL (≈ 70.2 µM)
- MIC (anti-bacterial activity) ([4]; strain MSSA 15-3): 32 µg/mL (≈ 70.2 µM)
- MIC (anti-bacterial activity) ([4]; strain MSSA 15-4): 32 µg/mL (≈ 70.2 µM)
- MIC (anti-bacterial activity) ([4]; strain MSSA 15-5): 32 µg/mL (≈ 70.2 µM)
- MIC (anti-bacterial activity) ([4]; strain MSSA 15-6): 32 µg/mL (≈ 70.2 µM)
- MIC (anti-bacterial activity) ([5]; strain ECO+ 15-1): 32 µg/mL (≈ 70.2 µM)
- MIC (anti-bacterial activity) ([5]; strain ECO+ 15-2): > 32 µg/mL
- MIC (anti-bacterial activity) ([5]; strain ECO+ 15-3): > 32 µg/mL
- MIC (anti-bacterial activity) ([5]; strain ECO+ 15-4): > 32 µg/mL
- MIC (anti-bacterial activity) ([5]; strain ECO− 15-1): > 32 µg/mL
- MIC (anti-bacterial activity) ([5]; strain ECO− 15-2): > 32 µg/mL
- MIC (anti-bacterial activity) ([5]; strain ECO− 15-3): > 32 µg/mL
- MIC (anti-bacterial activity) ([5]; strain ECO− 15-4): > 32 µg/mL
- MIC (anti-bacterial activity) ([6]; strain MRSE 15-1): 16 µg/mL (≈ 35.1 µM)
- MIC (anti-bacterial activity) ([6]; strain MRSE 15-2): 32 µg/mL (≈ 70.2 µM)
- MIC (anti-bacterial activity) ([6]; strain MRSE 15-3): 32 µg/mL (≈ 70.2 µM)
- MIC (anti-bacterial activity) ([6]; strain MRSE 15-7): 32 µg/mL (≈ 70.2 µM)
- Anti-bacterial activity (MIC), strain BCA 14-10 [7]: 32 µg/mL
- MIC (anti-bacterial activity) ([7]; strain BCA 14-1): 32 µg/mL (≈ 70.2 µM)
- MIC (anti-bacterial activity) ([7]; strain BCA 14-4): 32 µg/mL (≈ 70.2 µM)
- MIC (anti-bacterial activity) ([7]; strain BCA 14-5): 16 µg/mL (≈ 35.1 µM)
- MIC (anti-bacterial activity) ([7]; strain BCA 14-6): 32 µg/mL (≈ 70.2 µM)
- MIC (anti-bacterial activity) ([7]; strain BCA 14-7): 32 µg/mL (≈ 70.2 µM)
- MIC (anti-bacterial activity) ([7]; strain BCA 14-8): 32 µg/mL (≈ 70.2 µM)
- MIC (anti-bacterial activity) ([8]; strain SPN 16-2): 16 µg/mL (≈ 35.1 µM)
- MIC (anti-bacterial activity) ([8]; strain SPN 16-4): 32 µg/mL (≈ 70.2 µM)
- MIC (anti-bacterial activity) ([9]; strain MSSE 15-3): 32 µg/mL (≈ 70.2 µM)
- MIC (anti-bacterial activity) ([9]; strain MSSE 15-4): 32 µg/mL (≈ 70.2 µM)
- MIC (anti-bacterial activity) ([9]; strain MSSE 15-5): 32 µg/mL (≈ 70.2 µM)
- MIC (anti-bacterial activity) ([9]; strain MSSE 15-6): 32 µg/mL (≈ 70.2 µM)
- MIC (anti-bacterial activity) ([10]; strain EFM 15-1): 16 µg/mL (≈ 35.1 µM)
- MIC (anti-bacterial activity) ([10]; strain EFM 15-2): 16 µg/mL (≈ 35.1 µM)
- MIC (anti-bacterial activity) ([10]; strain EFM 15-3): 16 µg/mL (≈ 35.1 µM)
- MIC (anti-bacterial activity) ([10]; strain EFM 15-4): 16 µg/mL (≈ 35.1 µM)
- MIC (anti-bacterial activity) ([10]; strain EFM 15-5): 16 µg/mL (≈ 35.1 µM)
- MIC (anti-bacterial activity) ([10]; strain EFM 15-6): 16 µg/mL (≈ 35.1 µM)
